# Assay results: patent US20160374944A1, “COMPOSITIONS AND METHODS FOR TREATING AND PREVENTING CANCER BY TARGETING AND INHIBITING CANCER STEM CELLS” (priority 2011, published 2016)
# How the values were obtained:
# Pancreatic CSCs [1] = assay: Transwell migration assay; type: cell-based, human; settings: for migration: EGCG 0-60 μM with or without quercetin 20 μM, 48 hrs
# Protocol: (A) Pancreatic CSCs were treated with EGCG (0-60 μM) for 48 h. At the end of incubation period, the expression of Snail, ZEB1 and Slug was measured by q-RT-PCR. […] (B) Transwell migration assay. Pancreatic CSCs were plated in the top chamber of the transwell and treated with EGCG (0-60 μM) for 24 h. Cells migrated to the lower chambered were fixed with methanol, stained with crystal violet and counted. […] (C) Matrigel invasion assay. CSCs were plated onto the Matrigel-coated membrane in the top chamber of the transwell and treated with EGCG (0-60 μM) for 48 h. Cells invaded to the lower chambered were fixed with methanol, stained with crystal violet and counted. […] (D) Effects of EGCG on TCF-1/LEF activity. Pancreatic CSCs were transduced with TCF/LEF responsive GFP/firefly luciferase viral particles (pGreen Fire1-Gli with EF1, System Biosciences). Transduced CSCs were treated with EGCG (0-60) for 48 h and the GFP fluorescence was measured. […] FIG. 42A and FIG. 42B show graphs showing quercetin synergizes with EGCG to inhibit self-renewal capacity, invasion, migration, and TCF/LEF and Gli transcriptional activities in pancreatic CSCs. (A) Effects of EGCG and quercetin on spheroid and colony formation. Upper Panel, uercetin synergizes with EGCG to inhibit spheroid's cell viability. CSCs were seeded in suspension and treated with EGCG (0-60 μM) with or without quercetin (20 μM) for 7 days. At the end of incubation period, all the spheroids were collected and resuspended. Cell viability was measured by trypan blue assay. […] Lower panel, uercetin synergizes with EGCG to inhibit colony formation. […] At the end of incubation period, colonies were counted. […] Cells invaded to the lower chambered were fixed with methanol, stained with crystal violet and counted. […] Cells migrated to the lower chambered were fixed with methanol, stained with crystal violet and counted. […] Apoptosis was measured by TUNEL assay. […] Transduced CSCs were treated with EGCG (40 μM) with or without quercetin (20 μM) for 48 hrs and the luciferase activity was measured.
# Pancreatic CSCs [2] = settings: NOD/SCID/IL2R gamma mice, 20 mg/kg, 6 weeks
# Protocol: (§1) (A) Pancreatic CSCs were orthotopically implanted in pancreas of NSG mice, and treated with or without sulforaphane 20 mg/kg, for 6 weeks, (B and C) Pancreatic CSCs were xenografted sub-cutaneously in NSG mice, and treated with or without rottlerin and embelin 20 mg/kg, for 6 weeks, (D and E) Prostate CSCs were xenografted sub-cutaneously in NSG mice, and treated with or without rottlerin and embelin 20 mg/kg, for 6 weeks. At the end of the treatment, weights of tumors in treated mice were compared with control mice.
# Pancreatic CSCs [3] = assay: spheroid formation and cell viability in spheroids (trypan blue); type: cell-based, human; settings: SFN 0-10 μM with or without quercetin 20 μM, 7 days
# pancreatic cancer = settings: KrasG12D mice
# [4] = tested on: Gli reporter activity in prostate CSCs; assay: Gli-responsive dual luciferase reporter; type: cell-based, human; settings: rottlerin 0-2 μM, 24 h, dual luciferase assay
# Protocol: (§2) FIG. 17 graphs showing the regulation of Shh, Notch and TGFβ pathways by rottlerin. […] The expression of Patched-1, Patched-2, SMO, Gli1 and Gli2 was measured by qRT-PCR. […] Data were normalized with GAPDH. (D) Prostate CSCs were treated with rottlerin (0-1 μM) for 24 h. The expression of Notch1, Notch3 and JAG1 was measured by qRT-PCR. (E) TCF/LEF-1, Gli and Notch reporter activities. Prostate CSCs were transduced with a mixture of TCF/LEF1-, Gli-, or Notch-responsive firefly luciferase construct and Renilla luciferase construct (40:1) along with lipofectamine. After transduction, medium was changed and CSCs were treated with rottlerin (0-2 μM) for 24 h. […] (F) Immunofluorescence analysis of Gli1 and Gli2 expression in prostate CSCs. Green=Gli1 or Gli2; red=nucleus.
# Prostate CSCs [5] = assay: colony formation in soft agar; type: cell-based, human; settings: 21 days; embelin 0-6 μM, rottlerin 0-2 μM
# Protocol: (§3) In particular, embelin is shown to inhibit spheroid and colony formation, and induce caspase-3 and apoptosis. (A) Prostate CSCs were grown in CSC medium and treated with embelin (0-6 μM) for 7 days to obtain primary spheroids. At the end of incubation period, spheroids were collected, reseeded and treated with embelin for another week to obtain secondary spheroids. Cell viability in spheroids was measured by trypan blue assay at the end of 7 and 14 days. […] (B) Prostate CSCs were seeded in soft agar and treated with embelin (0-6 μM) for 21 days. […] (C and D) Activation of caspase-3 and induction of apoptosis is shown.
# as §3, with “(A)” for “In particular, embelin is shown to inhibit spheroid and colony formation, and induce caspase-3 and apoptosis. (A)”, “rottlerin (0-2” for “embelin (0-6”, “rottlerin” for “embelin”, “apoptosis.” for “apoptosis is shown.”
# Prostate CSCs [6] = assay: apoptosis; type: cell-based, human; settings: embelin 0-6 μM 48 h; rottlerin 0-2 μM 24 h
# Protocol: as §3
# as §3, with “(A)” for “In particular, embelin is shown to inhibit spheroid and colony formation, and induce caspase-3 and apoptosis. (A)”, “rottlerin (0-2” for “embelin (0-6”, “rottlerin” for “embelin”, “apoptosis.” for “apoptosis is shown.”
# Prostate CSCs [7] = assay: caspase-3 activity; type: cell-based, human; settings: 24 h; embelin 0-6 μM, rottlerin 0-2 μM
# Protocol: as §3
# as §3, with “(A)” for “In particular, embelin is shown to inhibit spheroid and colony formation, and induce caspase-3 and apoptosis. (A)”, “rottlerin (0-2” for “embelin (0-6”, “rottlerin” for “embelin”, “apoptosis.” for “apoptosis is shown.”
# Prostate CSCs [8] = assay: prostate CSCs xenografted sub-cutaneously in NSG mice; type: in vivo; settings: NOD/SCID/IL2R gamma mice, 20 mg/kg, 6 weeks
# Protocol: as §1
# [9] = tested on: Notch reporter activity in prostate CSCs; assay: Notch-responsive dual luciferase reporter; type: cell-based, human; settings: rottlerin 0-2 μM, 24 h, dual luciferase assay
# Protocol: as §2
smiles,measurement,setting,value
"O=C(O[C@@H]1Cc2c(O)cc(O)cc2O[C@@H]1c1cc(O)c(O)c(O)c1)c1cc(O)c(O)c(O)c1 [EGCG, epigallocatechin gallate]",migration,Pancreatic CSCs [1],"inhibited cell viability in spheroids, colony formation, migration and invasion by CSCs in a dose-dependent manner"
same,cell migration,"Pancreatic CSCs [1]; EGCG 0-60 μM, 24 h",inhibited
C[S+]([O-])CCCCN=C=S (stereo not shown) [sulforaphane],tumor growth (weights of tumors vs control mice),Pancreatic CSCs [2],inhibit tumor growth
same,cell viability in spheroids,Pancreatic CSCs [3],inhibited the cell viability and colony formation of pancreatic CSCs in a dose-dependent manner
same,pancreatic cancer progression,pancreatic cancer,inhibits the growth of pancreatic cancer progression
O=c1c(O)c(-c2ccc(O)c(O)c2)oc2cc(O)cc(O)c12 [quercetin],migration,Pancreatic CSCs [1],effective alone
same,cell viability in spheroids,Pancreatic CSCs [3],effective alone
CC(=O)c1c(O)c(C)c(O)c(Cc2c(O)c3c(c(C(=O)/C=C/c4ccccc4)c2O)OC(C)(C)C=C3)c1O [rottlerin],Gli responsive reporter activity,[4],"inhibited the TCF/LEF1, Gli1 and Notch responsive reporter activities in a dose-dependent manner"
same,colony formation in soft agar,Prostate CSCs [5],inhibited
same,apoptosis,Prostate CSCs [6],induces
same,caspase-3 activity,Prostate CSCs [7],induces
same,tumor growth (weights of tumors vs control mice),Prostate CSCs [8],inhibit tumor growth
same,Notch responsive reporter activity,[9],"inhibited the TCF/LEF1, Gli1 and Notch responsive reporter activities in a dose-dependent manner"
